Reference: US20240117303A1, “METHODS AND COMPOSITIONS FOR GENERATING HUMAN MIDBRAIN DOPAMINERGIC NEURONS FROM NEURAL PROGENITOR CELLS” (Trailhead Biosystems Inc., priority 2022, published 2024)
“Also recorded” adds a separate entry of the source.

Experiments:
[1] = tested on: stage 2 neural progenitors; test: HD-DoE another 12-factor model for stage 3 recipe (FIG. 24, 25, 30); type: cell-based, human; conditions: for level of MSX1 in absence of the factor / level of SOX6 in absence of the factor: AZD3147, DBZ, PD0325901 and BMP7 set; for level of MSX1 in absence of the factor: 45 with all factors; for level of SOX6 in absence of the factor: 185 with all factors; for impact on expression of MSX1 / impact on expression of SOX6: dynamic profile, 12 effectors; for factor contribution: model optimized for SOX6, positive impact
Method: In another 12-factor model, additional factors including Activin A, Takinib (TAK inhibitor), FGF8b, AZD3147 (mTOR antagonist), MHY1485 (mTOR agonist), and Yhhu-3792 (Notch agonist) were tested. Some of the factors from previous model (BMP7, A 8301, LDN193189, PD0325901, MK2206 and DBZ) were also included.
(§1) To assess the impact of elimination of each validated factor identified in Example 5 for the stage 3 and stage 4 recipes, we used dynamic profile analysis and compared the expression level of genes of interest in absence of each finalized factor while others are present.
In another model, to determine the combinatorial effect of AZD3147 and DBZ on gene profile of cells in presence of other factors of final recipe, the expression levels of SOX6 and MSX1 were compared in the absence of each of the factors in the presence of PD0325901 and BMP7. These two compounds were the only final compounds that were included in inputs of this experimental model The results are shown in FIG. 30A and FIG. 30B. […] When DBZ was removed, the level of SOX6 and MSX1 both decreased to 140 and 35, respectively.

stage 3 immature neurons = test: HD-DoE 8-factor experiment for stage 4 recipe (FIG. 27, 28, 31); type: cell-based, human
Method: To further differentiate the cells to a mature neuronal identity, additional HD-DoE experiments were performed on the cells that were cultured in stage 1, stage 2 and stage 3 differentiation media. After 4 days, gene expression of cells in different combinatorial conditions were investigated. At this time, we focused on maximal expression of more mature dopaminergic genes such as NR4A2, PITX3 and TH (Tiklová et al. (2020) Nat Commun. 11:2434; Fiorenzano et al. (2021) Nat Commun., 12:7302). In one model, cells were treated with a combinatorial matrix with eight inputs including CHIR99021, BDNF, GDNF, Rosiglitazone, GW7647, DBZ and heparin.
as §1
In the stage 4 recipe, each of six finalized factors were excluded while other factors were present and the expression levels of NR4A2 and PITX3 were assessed compared to the presence of all factors.

[2] = tested on: stage 2 neural progenitors; test: HD-DoE 12-factor model for stage 3 recipe (FIG. 19-23, 29); type: cell-based, human
Source text: To develop the neuronal differentiation recipes, the impact of various agonist and antagonists (effectors) on maturation of MB neural progenitors was investigated using the HD-DoE method described in Example 1. These effectors were chosen based on available literature on developmental biology, differentiation of stem cells as well as mouse and human single cell RNA-seq data from midbrain neurons at the time.
To engineer the recipe of stage 3 of differentiation, cells were first cultured in the stage 1 and stage 2 media as described herein, then they were treated with combinations of 8 or 12 factors for 3 days and the gene expression of cells in each condition was modeled. To guide the cells towards a subtype of midbrain dopaminergic neurons that reside in Substantia Nigra pars compacta (SNc) region of the brain, neural progenitors need to be SOX6^+ (Pereira et al. (2021) Cell Rep. 37:109975 Oosterveen et al. (2021) Stem Cell Reports 16:2718-2735 Poulin et al. (2020) Trends Neurosci. 43:155-169). CORIN, NGN2 and MSX1 are other markers involved in neurogenesis of dopaminergic neurons originating from floorplate region of developing midbrain (Wang et al. (2020) Cells 9:1489; Samata et al. (2016) Nat Commun. 7:13097; Ono et al. (2007) Development 134:3213-3225; Prakash et al. (2006) J. Physiol. 575:403410).
Therefore, we focused on maximizing expression of SOX6, CORIN, NGN2 and MSX1 in modeling experiments. One of the 12-factor models, the results of which are shown in FIG. 19, including LDN193189, AGN193109, BMP7, TTNPB, PD0325901, A8301, MHY1485, CHIR99021, XAV939, SANT-1, Purmorphamine and MK2206, provided a combination set that could maximize expression level of CORIN to more than 2000.
as §1
In the stage 3 recipe, each of the finalized factors were removed in their respective models while other factors were present and the expression level of genes of interest was assessed compared to presence of all factors. When AGN193109 was excluded, level of all CORIN, KCNJ6, MSX1 and SOX6 decreased from 900 to 450, 50 to 35, 140 to 110 and 105 to 60, respectively. […] When PD0325901 was removed, expression levels of CORIN and KCNJ6 increased to 1200 and 70 while levels of MSX1 and SOX6 decreased to 105 and 20. In the absence of CHIR99021, the expression level of CORIN was again increased to 1200 while the level of KCNJ6 and MSX1 dropped to 50 and 115. […] Therefore, it was decided to include this compound in the final recipe. […] Therefore, CHIR99021 was also included in the final recipe.

MB neural progenitors = test: HD-DoE 8-factor model, DBZ and AZD3147 (FIG. 26); type: cell-based, human; conditions: dynamic profile
[3] = tested on: human pluripotent stem cells; test: HD-DoE 13-factor experiment for stage 1 recipe, gene expression modeled after 3-day treatment; dynamic profile and factor criticality analysis; type: cell-based
Source text: This example utilizes a method of High-Dimensional Design of Experiments (HD-DoE), as previously described in Bukys et al. (2020) Iscience 23:101346. The method employs computerized design geometries to simultaneously test multiple process inputs and offers mathematical modeling of a deep effector/response space. The method allows for finding combinatorial signaling inputs that control a complex process, such as during cell differentiation. It allows testing of multiple plausible critical process parameters, as such parameters impact output responses, such as gene expression. Because gene expression provides hallmark features of the phenotype of, for example, a human cell, the method can be applied to identify, and understand, which signaling pathways control cell fate. In the current example, the HD-DOE method was applied with the intent to find conditions for induction of midbrain neural progenitor-expressed genes, directly from the pluripotent stem cell state.
To develop the recipe for each stage, the impact of agonists and antagonists of multiple signaling pathways (referred to herein as “effectors”) on the expression of two sets of 53 pre-selected genes after a 3-day treatment was tested and modeled. These effectors are small molecules or proteins that are commonly used during stepwise differentiation of stem cells to specific fates. The choice of the effectors to test was based on current literature on neural induction in the midbrain region of the developing brain and differentiation of stem cells to neural progenitors.
To test the effectors, experiments with at least 8 factors were designed that can assess the response of cells to 48 or more different combinations of effectors in a range of concentrations. To analyze the models, we focused on expression of genes expressed in the midbrain region, including OTX2, DMBX1, FOXA2, LMX1A, and on the absence of GBX2, which is a hindbrain marker. The impact of each effector on gene expression level is defined by a parameter called factor contribution that is calculated for each effector during the modeling.
To identify the recipe of stage 1 of differentiation, cells were treated with various effectors for 3 days and the gene expression of cells was modeled. […] This model consisted of 13 factors including LDN193189, PD173074, BLU9931, Purmorphamine, SC79, MK2206, ZM336372, PD0325901, CHIR99021, XAV939, UCLA-gp130, Tofacitinib and GO 6983.
(§2) To assess the impact of elimination of each validated factor, we used dynamic profile analysis and compared the expression level of genes of interest in absence of each finalized factor while others are present.
In the stage 1 recipe, each of the five finalized factors were removed while the other four factors were present and the expression levels of OTX2, DMBX1, FOXA2 and LMX1A was assessed compared to the levels in the presence of all five factors (FIG. 11A-B). […] Expression level of DMBX1 increased in absence of LDN193189, however values of OTX2, FOXA2 and LMX1A decreased.

[4] = tested on: stage 1 neural stem cells; test: HD-DoE 12-factor experiment for stage 2 recipe (second model, FIG. 8-10, 13); type: cell-based, human; conditions: for impact on expression of FOXA2 / impact on expression of LMX1A: dynamic profile, 12 effectors
Method: To test additional factors like FGF8 that is routinely used in midbrain differentiation protocols, we ran another 12-factor experiment consisting of LDN193189, BMP7, A 83-01, Activin A, Takinib, PD0325901, MK2206, FGF8b, AZD3147, MHY1485, GSI-XX and Yhhu 3792. Similar to the previous experiment, hiPSCs were treated with stage 1 media for 3 days and then treated with 96 conditions of combinations of the factors for an additional 3 days. When this model was optimized for maximum expression of FOXA2, BMP7 with factor contribution of 13.7 and MK2206 with 14.2 had the most impact on its expression followed by AZD 3147 with factor contribution of 10.9.
as §2
In the stage 2 recipe, each of the six finalized factors were removed while the other five factors were present and the expression levels of FOXA2, LMX1A and GBX2 were assessed, compared to the levels in the presence of all factors. According to the first experiment model, the absence of TTNPB lead to a rise of GBX2 expression, while the value of FOXA2 and LMX1A reduced drastically from 10,000 to 0 and 30,000 to 15,000, respectively. The absence of A 83-01 reduced the expression of FOXA2 from 10,000 to 7000, however, as expected, the value of LMX1A increased from 30,000 to 40,000. […] According to the second experiment model, the absence of BMP7 and MK2206 both reduced the level of FOXA2 while increasing the value of LMX1A, with BMP7 as the main effector that led to 0 expression of FOXA2.

[5] = model optimized for maximum expression of KCNJ6, positive regulators

C[C@H](NC(=O)Cc1cc(F)cc(F)c1)C(=O)N[C@@H]1C(=O)N(C)c2ccccc2-c2ccccc21 [DBZ]
level of MSX1 in absence of the factor [1]: 35
level of SOX6 in absence of the factor [1]: 140
impact on expression of MSX1 [1]: did not show any significant impact
impact on expression of SOX6 [1]: positive impact
factor contribution [1]: 21.5
impact on expression of NR4A2 (stage 3 immature neurons; 8-factor model / dynamic profile): positive regulatory impact
expression level of PITX3 in absence of the factor (stage 3 immature neurons; stage 4 recipe, other factors present, 40 with all factors): 30
expression level of NR4A2 in absence of the factor (stage 3 immature neurons; stage 4 recipe, other factors present, 400 with all factors): 200
factor contribution [2, 5]: low factor contributions
impact on expression of CORIN, KCNJ6, SOX6 and MSX1 (MB neural progenitors): positive regulatory effect; also recorded: Positive impact

O=C(NOC[C@H](O)CO)c1ccc(F)c(F)c1Nc1ccc(I)cc1F [PD0325901]
level of MSX1 in absence of the factor [1]: 40
level of SOX6 in absence of the factor [1]: 165
impact on expression of SOX6 [1]: positive impact
impact on expression of OTX2 ([3]; dynamic profile, 13 effectors): positive impact
factor contribution ([3]; model optimized for maximum expression of OTX2, positive impact, 3-day treatment): 18.1
expression level of LMX1A in absence of the factor ([3]; stage 1 recipe, other four factors present, 300 with all five factors): 500
expression level of FOXA2 in absence of the factor ([3]; stage 1 recipe, other four factors present, 600 with all five factors): 700
expression level of DMBX1 in absence of the factor ([3]; stage 1 recipe, other four factors present, 3000 with all five factors): 900
factor contribution [2, 5]: 10.9
factor contribution ([2]; model optimized for maximum expression of SOX6, positive impact): 13.5
expression level of KCNJ6 in absence of the factor ([2]; stage 3 recipe, other factors present, 50 with all factors): 70
expression level of SOX6 in absence of the factor ([2]; stage 3 recipe, other factors present, 105 with all factors): 20
expression level of MSX1 in absence of the factor ([2]; stage 3 recipe, other factors present, 140 with all factors): 105
expression level of CORIN in absence of the factor ([2]; stage 3 recipe, other factors present, 900 with all factors): 1200

C[C@H]1COCCN1c1cc(C2(S(=O)(=O)C3CC3)CC2)nc(-c2ccc(NC(=S)NCCO)cc2)n1 [AZD 3147]
level of MSX1 in absence of the factor [1]: did not change
level of SOX6 in absence of the factor [1]: 150
impact on expression of MSX1 [1]: did not show any significant impact
impact on expression of SOX6 [1]: positive impact
factor contribution [1]: 20.2
impact on expression of FOXA2 [4]: did not reduce
impact on expression of LMX1A [4]: significant positive impact
factor contribution ([4]; model optimized for maximum expression of FOXA2, positive impact): 10.9
level of FOXA2 in absence of the factor ([4]; stage 2 recipe, second experiment model): almost no effect
level of LMX1A in absence of the factor ([4]; stage 2 recipe, second experiment model, 4000 with all factors): 2000
impact on expression of CORIN, KCNJ6, SOX6 and MSX1 (MB neural progenitors): positive regulatory effect; also recorded: Positive impact

CCCn1/c(=N/C(=O)c2cccc(C(N)=O)c2)[nH]c2ccccc21 [Takinib]
impact on expression of MSX1 [1]: negatively regulate; also recorded: negative impact
impact on expression of SOX6 [1]: positive effect
impact on expression of FOXA2 [4]: did not make a meaningful positive change
impact on expression of LMX1A [4]: did not make a meaningful positive change

B1: Activin A: effector tested in the HD-DoE experiments (protein, UniProt P08476 311-426, looked up)
Inhibin beta A chain: GLECDGKVNICCKKQFFVSFKDIGWNDWIIAPSGYHANYCEGECPSHIAGTSGSSLSFHSTVINHYRMRGHSPFANLKSCCVPTKLRPMSMLYYDDGQNIIKKDIQNMIVEECGCS
modifications: Inhibin beta A chain
impact on expression of MSX1 [1]: negatively regulate; also recorded: negative impact
impact on expression of SOX6 [1]: positive effect
impact on expression of FOXA2 [4]: did not make a meaningful positive change
impact on expression of LMX1A [4]: did not make a meaningful positive change
